Reference: ChEMBL document CHEMBL1201862, “PubChem BioAssay data set” (2004)
Each block holds one compound with its values, some of them ahead of it. The source made the active and inactive calls.

Key:
HEK293 = experiment: cells; assay type: functional, cell-based; settings: Homo sapiens
[1] = molecular target: T1, Nuclear receptor subfamily 0 group B member 1 (Homo sapiens, UniProt P51843); experiment: Luminescence-based cell-based high throughput dose response assay for inhibitors of the orphan nuclear receptor subfamily 0, group B, member 1 (DAX1; NR0B1). [Related pubchem assays (depositor defined):AID504766, AID504790]; assay type: functional
T1 sequence (P51843 whole entry): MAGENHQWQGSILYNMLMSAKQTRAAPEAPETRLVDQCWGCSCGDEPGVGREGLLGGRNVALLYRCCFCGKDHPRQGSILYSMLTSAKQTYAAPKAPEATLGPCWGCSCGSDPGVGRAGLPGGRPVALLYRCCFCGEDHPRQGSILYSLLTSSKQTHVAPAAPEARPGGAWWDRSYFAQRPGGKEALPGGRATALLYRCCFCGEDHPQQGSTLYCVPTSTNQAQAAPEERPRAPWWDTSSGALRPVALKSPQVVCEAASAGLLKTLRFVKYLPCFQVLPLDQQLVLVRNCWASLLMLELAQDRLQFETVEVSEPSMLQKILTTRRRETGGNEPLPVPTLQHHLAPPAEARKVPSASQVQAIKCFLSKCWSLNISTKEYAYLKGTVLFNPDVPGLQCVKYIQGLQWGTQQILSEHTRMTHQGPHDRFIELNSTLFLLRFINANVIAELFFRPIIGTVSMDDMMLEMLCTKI

[2] = molecular target: Dual specificity protein phosphatase 3 (Homo sapiens, UniProt P51452); experiment: VHR phosphatase inhibition, dose response, selectivity assay for STEP inhibitor project, biochemical (AID 602374); assay type: functional; settings: read-out: IC50_Mean
[3] = molecular target: Tyrosine-protein phosphatase non-receptor type 11 (Homo sapiens, UniProt Q06124); experiment: SHP2 phosphatase inhibition, dose response, selectivity assay for STEP inhibitor project, biochemical (AID 602367); assay type: functional; settings: read-out: IC50_Mean
[4] = molecular target: Tyrosine-protein phosphatase non-receptor type 5 (Homo sapiens, UniProt P54829); experiment: STEP phosphatase inhibitors, confirmation, biochemical, fluorescence intensity, uHTS hits (AID 602372); assay type: functional; settings: read-out: IC50_Mean
[5] = molecular target: Mitochondrial peptide methionine sulfoxide reductase (Bos taurus, UniProt P54149); assay type: functional;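 note: absorbance read-out, biochemical high-throughput dose-response screen for MsrA inhibitors, confirmatory; recombinant bovine MsrA coupled to E. coli TrxB with NADPH and selenocystamine; potency is for inhibitors of MsrA activity on DMSO substrate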
INS1 = experiment: beta cell apoptosis inhibitors, cytokine rescue, dose response, luminescence, retest (AID 449756); assay type: functional, cell-based; settings: Rattus norvegicus;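 note: cell death triggered by IL-1 beta plus TNF-alpha plus IFN-gamma mixture; protective hits raise ATP signal compared with cytokine alone wells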
[6] = molecular target: T2, Sentrin-specific protease 8 (Homo sapiens, UniProt Q96LD8); assay type: functional
T2 sequence (Q96LD8 whole entry): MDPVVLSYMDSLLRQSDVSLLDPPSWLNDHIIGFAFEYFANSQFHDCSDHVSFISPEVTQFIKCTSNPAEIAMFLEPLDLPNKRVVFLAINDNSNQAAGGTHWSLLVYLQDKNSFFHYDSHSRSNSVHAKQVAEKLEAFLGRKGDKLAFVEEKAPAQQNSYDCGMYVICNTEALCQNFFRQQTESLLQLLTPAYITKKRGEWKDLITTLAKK

[7] = molecular target: T2, Sentrin-specific protease 8; assay type: functional; remark: listed apart in the source
[8] = molecular target: ATP-dependent molecular chaperone HSP82 (Candida albicans (strain WO-1) (Yeast), UniProt C4YTQ8); experiment: loss of DOC-induced GRE-beta-galactosidase reporter signal, dose response, Hsp90 inhibitor project, S. cerevisiae, luminescence (AID 2400); assay type: functional, cell-based;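 note: beta-galactosidase luminescence from glucocorticoid response element reporter as proxy for Hsp90 function; inhibitor potency where signal loss means Hsp90 inhibition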
[9] = C. albicans growth with fluconazole, confirmation, fluorescence, retest (AID 2467); assay type: functional, cell-based
[10] = NIH-3T3 fibroblast cytotoxicity, dose response, cytotoxicity control, cell-based, fluorescence, Alamar Blue, secondary assay (AID 2327); assay type: functional;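 note: NIH-3T3 mouse fibroblasts cultured with fluconazole at 8 µg/mL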
[11] = molecular target: T3, Serine/threonine-protein phosphatase (Candida dubliniensis (strain CD36 / CBS 7987 / NCPF 3949 / NRRLY-17841) (Yeast), UniProt B9W6M3); experiment: calcineurin pathway inhibitors in yeast reporter, dose response, S. cerevisiae, CDRE-lacZ, luminescence, secondary (AID 2388); assay type: functional, cell-based;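 note: yeast reporter cells carrying a calcineurin-responsive lacZ construct stimulated with calcium chloride; luminescent beta-galactosidase reporter signal in whole cells rather than isolated phosphatase activity; potency for inhibition where a drop in reporter signal means calcineurin blockade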
T3 sequence (B9W6M3 whole entry): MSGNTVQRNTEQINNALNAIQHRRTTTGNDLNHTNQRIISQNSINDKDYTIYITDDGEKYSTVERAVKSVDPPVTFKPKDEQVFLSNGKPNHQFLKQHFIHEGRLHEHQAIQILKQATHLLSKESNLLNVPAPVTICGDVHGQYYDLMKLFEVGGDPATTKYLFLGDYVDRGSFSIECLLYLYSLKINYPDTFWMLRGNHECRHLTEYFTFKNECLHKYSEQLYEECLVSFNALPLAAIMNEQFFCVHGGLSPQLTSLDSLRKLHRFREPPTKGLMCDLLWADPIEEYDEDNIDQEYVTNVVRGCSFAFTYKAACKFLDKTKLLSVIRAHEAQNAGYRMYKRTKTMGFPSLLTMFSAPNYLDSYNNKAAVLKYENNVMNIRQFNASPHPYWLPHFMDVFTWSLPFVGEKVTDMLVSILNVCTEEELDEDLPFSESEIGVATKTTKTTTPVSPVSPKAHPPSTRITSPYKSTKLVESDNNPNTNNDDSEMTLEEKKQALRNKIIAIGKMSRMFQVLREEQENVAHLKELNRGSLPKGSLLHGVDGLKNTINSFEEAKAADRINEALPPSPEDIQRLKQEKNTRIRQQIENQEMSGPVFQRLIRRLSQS

[12] = molecular target: T4, Tyrosine-protein phosphatase non-receptor type 22 (Homo sapiens, UniProt Q9Y2R2); experiment: LYP phosphatase inhibition for selectivity, dose response, selectivity assay for LMPTP inhibitor project, biochemical, fluorescence, LYP catalytic domain (AID 652006); assay type: functional; settings: read-out: IC50_Mean
T4 sequence (Q9Y2R2 whole entry): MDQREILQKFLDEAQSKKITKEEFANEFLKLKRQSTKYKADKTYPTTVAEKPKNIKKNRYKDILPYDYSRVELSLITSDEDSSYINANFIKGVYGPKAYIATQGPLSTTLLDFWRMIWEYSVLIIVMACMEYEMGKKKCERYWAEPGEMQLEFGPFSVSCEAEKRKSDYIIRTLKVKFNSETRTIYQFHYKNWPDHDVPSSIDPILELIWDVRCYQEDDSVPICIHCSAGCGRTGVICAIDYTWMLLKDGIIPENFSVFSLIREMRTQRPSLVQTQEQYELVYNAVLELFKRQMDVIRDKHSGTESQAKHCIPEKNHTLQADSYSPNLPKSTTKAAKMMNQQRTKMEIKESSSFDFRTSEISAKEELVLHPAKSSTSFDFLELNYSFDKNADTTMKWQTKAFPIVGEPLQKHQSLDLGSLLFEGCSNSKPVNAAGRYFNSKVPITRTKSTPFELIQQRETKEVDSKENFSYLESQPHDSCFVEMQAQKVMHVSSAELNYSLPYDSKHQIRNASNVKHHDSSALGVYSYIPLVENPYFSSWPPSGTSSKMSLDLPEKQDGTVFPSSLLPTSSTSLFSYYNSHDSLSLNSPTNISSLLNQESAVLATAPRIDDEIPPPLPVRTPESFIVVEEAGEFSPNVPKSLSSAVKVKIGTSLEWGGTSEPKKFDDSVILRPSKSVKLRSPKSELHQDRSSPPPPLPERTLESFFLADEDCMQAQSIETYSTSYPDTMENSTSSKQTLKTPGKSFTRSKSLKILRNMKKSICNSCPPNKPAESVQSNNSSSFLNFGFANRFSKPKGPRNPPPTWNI

[13] = molecular target: T5, Low molecular weight phosphotyrosine protein phosphatase (Homo sapiens, UniProt P24666); assay type: functional; settings: read-out: IC50_Mean
T5 sequence (P24666 whole entry): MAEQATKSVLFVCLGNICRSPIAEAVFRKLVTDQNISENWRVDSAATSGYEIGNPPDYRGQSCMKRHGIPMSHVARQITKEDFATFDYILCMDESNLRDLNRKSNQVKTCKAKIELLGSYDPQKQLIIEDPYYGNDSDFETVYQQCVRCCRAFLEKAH

[14] = molecular target: T5, Low molecular weight phosphotyrosine protein phosphatase; assay type: functional; settings: read-out: IC50_Mean; remark: listed apart in the source
Leucine aminopeptidase = molecular target: T6, Leucine aminopeptidase (Plasmodium falciparum 3D7, UniProt Q8IL11); experiment: P. falciparum M17LAP inhibitors, primary screen, biochemical, fluorogenic H-Leu-NHMec substrate, 1536-well (AID 1619); assay type: functional
T6 sequence (Q8IL11 whole entry): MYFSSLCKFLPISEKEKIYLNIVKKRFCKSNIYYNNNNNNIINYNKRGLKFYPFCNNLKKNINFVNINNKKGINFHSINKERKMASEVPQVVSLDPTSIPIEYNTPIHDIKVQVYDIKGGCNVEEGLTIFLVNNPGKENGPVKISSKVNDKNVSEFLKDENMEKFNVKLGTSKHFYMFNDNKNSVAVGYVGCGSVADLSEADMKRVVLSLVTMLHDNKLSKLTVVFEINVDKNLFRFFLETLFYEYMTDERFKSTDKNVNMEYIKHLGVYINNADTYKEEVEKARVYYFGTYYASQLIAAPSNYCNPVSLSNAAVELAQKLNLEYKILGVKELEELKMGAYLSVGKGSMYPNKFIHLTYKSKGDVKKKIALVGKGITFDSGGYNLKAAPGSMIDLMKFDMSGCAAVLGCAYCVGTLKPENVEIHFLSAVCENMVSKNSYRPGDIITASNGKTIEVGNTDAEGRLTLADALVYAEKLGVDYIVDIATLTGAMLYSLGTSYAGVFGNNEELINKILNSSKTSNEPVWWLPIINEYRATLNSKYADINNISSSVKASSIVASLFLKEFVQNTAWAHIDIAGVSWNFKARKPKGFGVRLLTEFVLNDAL

Chain of Mitochondrial peptide methionine sulfoxide reductase (P54149 whole entry): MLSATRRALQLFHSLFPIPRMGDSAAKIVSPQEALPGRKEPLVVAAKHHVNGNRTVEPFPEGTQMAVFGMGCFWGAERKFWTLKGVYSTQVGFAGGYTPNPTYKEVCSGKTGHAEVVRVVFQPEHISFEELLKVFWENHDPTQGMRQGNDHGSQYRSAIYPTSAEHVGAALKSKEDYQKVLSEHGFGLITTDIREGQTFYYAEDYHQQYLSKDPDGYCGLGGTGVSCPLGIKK
Chain of ATP-dependent molecular chaperone HSP82 (C4YTQ8 whole entry): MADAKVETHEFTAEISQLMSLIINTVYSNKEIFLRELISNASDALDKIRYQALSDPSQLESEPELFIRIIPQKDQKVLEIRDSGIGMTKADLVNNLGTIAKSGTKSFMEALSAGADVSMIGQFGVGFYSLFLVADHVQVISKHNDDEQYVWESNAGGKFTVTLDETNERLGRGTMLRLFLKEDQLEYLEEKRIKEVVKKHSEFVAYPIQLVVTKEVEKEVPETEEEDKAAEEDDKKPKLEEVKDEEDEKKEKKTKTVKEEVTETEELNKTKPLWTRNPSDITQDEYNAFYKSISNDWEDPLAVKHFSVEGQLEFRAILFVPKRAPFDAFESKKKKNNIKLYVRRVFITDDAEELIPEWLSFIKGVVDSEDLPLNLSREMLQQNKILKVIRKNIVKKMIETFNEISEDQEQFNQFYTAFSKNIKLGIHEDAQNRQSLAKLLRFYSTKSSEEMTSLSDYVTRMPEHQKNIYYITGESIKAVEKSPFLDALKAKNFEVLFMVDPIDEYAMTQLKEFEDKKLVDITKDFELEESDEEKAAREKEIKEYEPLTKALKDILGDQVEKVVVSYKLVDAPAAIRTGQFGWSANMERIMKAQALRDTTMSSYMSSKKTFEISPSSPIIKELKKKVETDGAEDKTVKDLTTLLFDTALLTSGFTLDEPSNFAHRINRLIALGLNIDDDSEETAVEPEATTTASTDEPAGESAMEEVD
Chain of Tyrosine-protein phosphatase non-receptor type 5 (P54829 whole entry): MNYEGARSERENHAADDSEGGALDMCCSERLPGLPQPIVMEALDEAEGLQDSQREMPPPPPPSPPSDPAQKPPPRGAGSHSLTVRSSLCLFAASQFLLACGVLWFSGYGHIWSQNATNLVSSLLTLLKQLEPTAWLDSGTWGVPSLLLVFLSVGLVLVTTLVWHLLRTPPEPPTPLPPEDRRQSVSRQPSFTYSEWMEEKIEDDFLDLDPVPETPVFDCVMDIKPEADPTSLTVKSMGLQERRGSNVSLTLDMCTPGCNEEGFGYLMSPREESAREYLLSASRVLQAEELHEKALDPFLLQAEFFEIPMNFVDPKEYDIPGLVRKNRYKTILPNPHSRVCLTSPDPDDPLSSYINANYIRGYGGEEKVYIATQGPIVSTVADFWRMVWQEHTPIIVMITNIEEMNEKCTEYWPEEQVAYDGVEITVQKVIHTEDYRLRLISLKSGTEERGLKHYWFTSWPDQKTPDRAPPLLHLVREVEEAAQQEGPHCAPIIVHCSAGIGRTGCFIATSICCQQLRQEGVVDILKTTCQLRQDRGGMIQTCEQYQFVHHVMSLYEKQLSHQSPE
Chain of Dual specificity protein phosphatase 3 (P51452 whole entry): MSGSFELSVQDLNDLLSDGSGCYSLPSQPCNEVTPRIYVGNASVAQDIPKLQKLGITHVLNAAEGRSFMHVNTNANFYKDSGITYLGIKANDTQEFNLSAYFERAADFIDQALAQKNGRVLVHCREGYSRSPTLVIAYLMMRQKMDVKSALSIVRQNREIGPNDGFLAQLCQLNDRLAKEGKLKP

Structure (SMILES): COC(=O)c1sc(=S)n(Cc2ccccc2)c1C
IC50 (HEK293): > 67.5 µM (inactive)
IC50 [1]: > 67.5 µM (inactive)

IC50 [2]: 0.696 µM (active)
IC50 [3]: 1.71 µM (active)
IC50 [4]: > 80 µM (inactive)
Structure (SMILES): COCCN(C(=S)Nc1c(C)cc(C)cc1C)C(C)c1cccnc1 (stereo unspecified)

Structure (SMILES): COC(=O)C1(Cc2ccc(O)cc2)OC(=O)C(O)=C1c1ccc(O)cc1 (stereo unspecified)
IC50 (HEK293): 56.1 µM (inactive)
IC50 [1]: > 67.5 µM (inactive)

Structure (SMILES): CC(=O)NN1C(=O)c2ccc3c4c(ccc(c24)C1=O)C(=O)N(NC(C)=O)C3=O
IC50 [5]: 76.8 µM (inactive)
AC50 (INS1): 0.652 µM (active)
IC50 [6]: 0.445 µM (active)
IC50 [7]: 0.0707 µM (active)

Structure (SMILES): CCc1cc(-c2nnc(S)n2-c2ccccc2C)cs1
EC50 [8]: > 160 µM (inactive)
EC50 [9]: 0.363 µM (active)
EC50 [10]: > 150 µM (inactive)
EC50 [11]: > 180 µM (inactive)

Structure (SMILES): COCCNC(=O)C(c1ccc(Cl)cc1)N(Cc1ccco1)C(=O)CCC(=O)Nc1ccccn1 (stereo unspecified)
IC50 (HEK293): > 67.5 µM (inactive)
IC50 [1]: > 67.5 µM (inactive)

IC50 [12]: 22.7 µM (inactive)
IC50 [13]: 16.4 µM (active)
IC50 [14]: 11.6 µM (active)
Structure (SMILES): COc1ccc(Nc2nc(NCc3cccs3)nc3ccsc23)cc1OC

IC50 [5]: 114 µM (inactive)
IC50 (Leucine aminopeptidase): 45.7 µM (active)
Structure (SMILES): Cc1[nH]c(C(=O)N/N=C/c2ccc(C(=O)O)cc2)c(C)c1C(=O)N/N=C/c1ccc(C(=O)O)cc1

Structure (SMILES): Nc1ccc(C(=O)N/N=C\c2ccc(OC(=O)c3ccccc3Cl)cc2)cc1
EC50 [8]: > 160 µM (inactive)
EC50 [9]: 0.797 µM (active)
EC50 [10]: > 160 µM (inconclusive)
EC50 [11]: > 180 µM (inactive)
